Assay results taken from patent US20240262819A1, “NOVEL COMPOUNDS HAVING INHIBITORY ACTIVITY AGAINST GLUCOSYLCERAMIDE SYNTHASE OR PHARMACEUTICALLY ACCEPTABLE SALT THEREOF, PROCESSES FOR PREPARING THE SAME, AND PHARMACEUTICAL COMPOSITIONS COMPRISING THE SAME” (YUHAN CORPORATION, priority 2021, published 2024).

System: GM1 production in Jurkat cells
Test: cells
Format: cell-based
Details: Homo sapiens, Jurkat, 72 h

Row | SMILES | IC50 [nM]
1 | CCc1cccc(-c2ccc3c(c2)CC(C)(C)[C@H]3NC(=O)O[C@@H]2CN3CCC2CC3)c1 [Example 1, (S)-quinuclidin-3-yl((R)-5-(3-ethylphenyl)-2,2-dimethyl-2,3-dihydro-1H-inden-1-yl)carbamate] | 4.53
2 | CC(C)c1cccc(-c2ccc3c(c2)CC(C)(C)[C@H]3NC(=O)O[C@@H]2CN3CCC2CC3)c1 [Example 2, (S)-quinuclidin-3-yl((R)-5-(3-isopropylphenyl)-2,2-dimethyl-2,3-dihydro-1H-inden-1-yl)carbamate] | 3.75
3 | CCCCc1ccc(-c2ccc3c(c2)CC(C)(C)[C@H]3NC(=O)O[C@@H]2CN3CCC2CC3)cc1 [Example 3, (S)-quinuclidin-3-yl((R)-5-(4-butylphenyl)-2,2-dimethyl-2,3-dihydro-1H-inden-1-yl)carbamate] | 1.24
4 | CCCc1ccc(-c2ccc3c(c2)CC(C)(C)[C@H]3NC(=O)O[C@@H]2CN3CCC2CC3)cc1 [Example 4, (S)-quinuclidin-3-yl((R)-2,2-dimethyl-5-(4-propylphenyl)-2,3-dihydro-1H-inden-1-yl)carbamate] | 3.74
5 | CC(C)Cc1ccc(-c2ccc3c(c2)CC(C)(C)[C@H]3NC(=O)O[C@@H]2CN3CCC2CC3)cc1 [Example 5, (S)-quinuclidin-3-yl((R)-5-(4-isobutylphenyl)-2,2-dimethyl-2,3-dihydro-1H-inden-1-yl)carbamate] | 4.14
6 | CC(C)(C)c1ccc(-c2ccc3c(c2)CC(C)(C)[C@H]3NC(=O)O[C@@H]2CN3CCC2CC3)cc1 [Example 6, (S)-quinuclidin-3-yl((R)-5-(4-(tert-butyl)phenyl)-2,2-dimethyl-2,3-dihydro-1H-inden-1-yl)carbamate] | 9.97
7 | CCOc1ccc(-c2ccc3c(c2)CC(C)(C)[C@H]3NC(=O)O[C@@H]2CN3CCC2CC3)cc1 [Example 7, (S)-quinuclidin-3-yl((R)-5-(4-ethoxyphenyl)-2,2-dimethyl-2,3-dihydro-1H-inden-1-yl)carbamate] | 13.7
8 | CC(C)COc1ccc(-c2ccc3c(c2)CC(C)(C)[C@H]3NC(=O)O[C@@H]2CN3CCC2CC3)cc1 [Example 8, (S)-quinuclidin-3-yl((R)-5-(4-isobutoxyphenyl)-2,2-dimethyl-2,3-dihydro-1H-inden-1-yl)carbamate] | 1.09
9 | CC1(C)Cc2cc(-c3ccc(OCC4CC4)nc3)ccc2[C@@H]1NC(=O)O[C@@H]1CN2CCC1CC2 [Example 13, (S)-quinuclidin-3-yl((R)-5-(6-(cyclopropylmethoxy)pyridin-3-yl)-2,2-dimethyl-2,3-dihydro-1H-inden-1-yl)carbamate] | 4.15
10 | CCCCOc1ccc(-c2ccc3c(c2)CC(C)(C)[C@H]3NC(=O)O[C@@H]2CN3CCC2CC3)cc1Cl [Example 17, (S)-quinuclidin-3-yl((R)-5-(4-butoxy-3-chlorophenyl)-2,2-dimethyl-2,3-dihydro-1H-inden-1-yl)carbamate] | 20.6
11 | CCOc1ccc(-c2ccc3c(c2)CC(C)(C)[C@H]3NC(=O)O[C@@H]2CN3CCC2CC3)cc1F [Example 19, (S)-quinuclidin-3-yl((R)-5-(4-ethoxy-3-fluorophenyl)-2,2-dimethyl-2,3-dihydro-1H-inden-1-yl)carbamate] | 56
12 | CCOc1ccc(-c2cc3c(cc2F)[C@H](NC(=O)O[C@@H]2CN4CCC2CC4)C(C)(C)C3)cc1 [Example 56, (S)-quinuclidin-3-yl((R)-5-(4-ethoxyphenyl)-6-fluoro-2,2-dimethyl-2,3-dihydro-1H-inden-1-yl)carbamate] | 10.7
13 | CCc1ccc(-c2cc3c(cc2F)[C@H](NC(=O)O[C@@H]2CN4CCC2CC4)C(C)(C)C3)cc1 [Example 58, (S)-quinuclidin-3-yl((R)-5-(4-ethylphenyl)-6-fluoro-2,2-dimethyl-2,3-dihydro-1H-inden-1-yl)carbamate] | 5.74

Same assay, conditions: read-out: IC50

Row | SMILES | IC50 [nM]
14 | COc1ccc(-c2ccc3c(c2)CC(C)(C)[C@H]3NC(=O)O[C@@H]2CN3CCC2CC3)c(F)c1 [Example 12, (S)-quinuclidin-3-yl((R)-5-(2-fluoro-4-methoxyphenyl)-2,2-dimethyl-2,3-dihydro-1H-inden-1-yl) carbamate] | 5.94
